Data set [1] can be described thus: Toxicity in Balb/c mouse implanted with mouse 4T1 cells assessed as increase in survival rate at 10 mg/kg, iv administered on day 0,3, and 5 measured after 24 days (reference value: 27 days). The format is organism-based. The following applies: in vivo, 576 h, time 24 day.
Data set [2] can be described thus: Prodrug conversion in 1-Ac probed mouse 4T1 cells assessed as carbon monoxide release by measuring red fluorescence at 20 uM incubated for 6 hrs by hoechst dye based confocal laser scanning microscopic analysis. It counts as ADME, cell-based. The conditions noted are these: 4t1, 6 h.
Data set [3] can be described thus: Toxicity in Balb/c mouse implanted with mouse 4T1 cells assessed as change in body weight at 10 mg/kg, iv administered on day 0,3, and 5 measured after 24 days. The format is organism-based. The conditions noted are these: in vivo, 576 h, time 24 day.
For data set [4], the system named is 4T1. Put plainly: Antiproliferative activity against mouse 4T1 cells assessed as inhibition of cell growth measured after 24 hrs by Cell Counting Kit-8 assay. It counts as functional, cell-based. The following applies: for IC50: 4T1, 24 h. A general note: Formazan colour is commonly taken as a measure of viable cells.
Data set [5] in a line: Prodrug conversion in PBS buffer assessed as carbon monoxide release by measuring half life at pH 7.4 at 25 uM in presence of H2O2 by HPLC analysis. The format is ADME. The conditions noted are these: pH 7.4, 25 µM.
Data set [6] is described as follows: Prodrug conversion in PBS buffer assessed as carbon monoxide release by measuring half life at pH 7.4 at 25 uM by HPLC analysis. The format is ADME. The following applies: pH 7.4, 25 µM.
The nature of data set [7]: Prodrug conversion in Balb/c mouse implanted with mouse 4T1 cells assessed as carbon monoxide release in tumor by measuring red fluorescence at 10 mg/kg, iv incubated for 6 hrs followed by 1-Ac probe addition by hoechst dye based confocal laser scanning microscopic analysis. It counts as ADME, organism-based. The following applies: in vivo.
In data set [8] the test system is Panc02. Put plainly: Antiproliferative activity against Panc02 cells assessed as inhibition of cell growth measured after 24 hrs by Cell Counting Kit-8 assay. The following applies: Mus musculus. It counts as functional, cell-based.
The test system of data set [9] is 4T1. The experiment in a line: Antitumor activity against mouse 4T1 cells implanted in Balb/c mouse assessed as fold change in tumor volume at 10 mg/kg, iv administered on day 0,3, and 5 measured after 24 days (reference value: 25.5). The format is functional. The conditions noted are these: for fold change (FC): time 24 day; for Activity: time 24.0 day.
The nature of data set [10]: Prodrug conversion in PBS buffer assessed as formation of 3',6'-dimethyl-[1,1':2',1''-terphenyl]-4'-carbonitrile by measuring half life at pH 7.4 at 25 uM measured after 24 hrs in presence of H2O2 by HPLC analysis. It counts as ADME. The following applies: pH 7.4, 24 h.
The nature of data set [11]: Prodrug conversion in PBS buffer assessed as formation of oxidized intermediate by measuring half life at pH 7.4 at 25 uM measured after 24 hrs in presence of H2O2 by HPLC analysis. The conditions noted are these: pH 7.4, 24 h. It counts as ADME.
In data set [12] the test system is Panc02. Put plainly: Antiproliferative activity against Panc02 cells assessed as inhibition of cell growth upto 100 uM measured after 24 hrs by Cell Counting Kit-8 assay. It counts as functional, cell-based. The following applies: Mus musculus.
In data set [13] the test system is 4T1. The experiment in a line: Antiproliferative activity against mouse 4T1 cells assessed as inhibition of cell growth upto 100 uM measured after 24 hrs by Cell Counting Kit-8 assay. The format is functional, cell-based.

Calls of active or inactive are those of the source. No cut-off for these calls is given here.

As a reminder, the IC50 is the concentration at which inhibition is half-maximal. With `CCCCCS[C@H]1C(C=O)[C@]2(C)C(=O)[C@]1(C)C(c1ccccc1)=C2c1ccccc1` (stereo partly specified), the Survival in [1] worked out at 42 days. In addition, the Drug metabolism entry in [2] and in data set [7] was “Metabolite_Detected” each time. In addition, the Activity entry in data set [3] was “Non-Toxic”. The IC50 in the data set with 4T1 [4] stood at 29.4 µM; in the data set on Panc02 [8] (Panc02, 24 h), 72.5 µM. In addition, the t1/2 in data set [5] was determined as 3.4 h; in data set [6] it was 81.6 h. In addition, the “fold change (FC)” value with 4T1 [9] came out at 9.4.

As to `CCCCCS[C@H]1C(C#N)[C@]2(C)C(=O)[C@]1(C)C(c1ccccc1)=C2c1ccccc1` (stereo partly specified), the t1/2 in data set [10] amounted to 12 h; in data set [11] it was 2 h. In addition, the Drug metabolism result in data set [2] and in data set [7] was “Metabolite_Detected” in each case. Besides, the IC50 in the data set with 4T1 [4] is greater than 100 µM. Further, in the data set on Panc02 [12], the outcome was inactive. Besides, the “fold change (FC)” value in the data set with 4T1 [9] is listed as 16.5.

Consider `CCCCCS[C@H]1C(C(=O)OC)[C@]2(C)C(=O)[C@]1(C)C(c1ccccc1)=C2c1ccccc1` (stereo partly specified), for which the Drug metabolism entry in data set [2] and in data set [7] was “Metabolite_Notdetected” each time. Further, the outcome in the data set with 4T1 [4], in the data set on Panc02 [8] and in the data set with 4T1 [9] was inactive.

Consider `Cc1ccc(S[C@H]2C(C#N)[C@]3(C)C(=O)[C@]2(C)C(c2ccccc2)=C3c2ccccc2)cc1` (stereo partly specified), for which the t1/2 in [10] came to 12 h; in [11] it was 2 h.

Consider `Cc1cc(C#N)c(C)c(-c2ccccc2)c1-c1ccccc1`, for which the result in the data set on 4T1 [13], in the data set with Panc02 [12] and in the data set on 4T1 [9] was inactive.

In the case of `Cc1cc(C=O)c(C)c(-c2ccccc2)c1-c1ccccc1`, the outcome in the data set on 4T1 [4], in the data set with Panc02 [8] and with 4T1 [9] was inactive.

For `Cc1ccc(S[C@H]2C(C=O)[C@]3(C)C(=O)[C@]2(C)C(c2ccccc2)=C3c2ccccc2)cc1` (stereo partly specified), the t1/2 in [5] was 2.2 h; in data set [6] it was 3 h.

These data come from ChEMBL document CHEMBL5370662, “Reactive Oxygen Species-Activated Metal-Free Carbon Monoxide Prodrugs for Targeted Cancer Treatment” (J Med Chem, 2023).
